Assay results: EP4768484A1, “HETEROCYCLIC FUSED RING COMPOUND, AND COMPOSITION AND USE THEREOF” (Shenzhen TargetRx, Inc., priority 2023, dated 2025)

What was measured:
Format in all cases: cell-based
[1] = tested on: K562 cells; test: Cell growth inhibitory activity assay (CellTiter-Glo), K562 cells; settings: Homo sapiens, 72 h, CTG cell viability
Description: (§1) In this assay, the Celltiter-Glo (CTG) kit provided by Promega was used, and it is a homogeneous cell viability assay method. The cell viability of cultured cells was measured by quantifying ATP. K562 cells were purchased from Nanjing Kebai, product number CBP60529; Ba/F3 parental cells were purchased from RIKEN BRC, product number RCB0805; other cells containing BCR-ABL1 WT, BCR-ABL1 T315I, BCR-ABL1 T315M, BCR-ABL1 Y253H/E255K, BCR-ABL1 E255V/T3151, BCR-ABL1 A424T, BCR-ABL1 A337V, BCR-ABL1 P465S, BCR-ABL1 V468F, and BCR-ABL1 I502L were all monoclonal engineered cell lines obtained by transducting Ba/F3 parental cells with the lentivirus plasmids containing WT or corresponding mutated BCR-ABL1.
(§2) The steps of cell viability assay are as follows: • a) Cells in logarithmic growth phase were collected. Cell suspension was prepared and the cells were counted. Concentration of the cells was calculated. • b) The cell suspension was diluted to the required concentration and then added to the middle wells of a 96-well plate, and PBS was added to the edge wells. The wells with no cells and only culture medium were used as blank controls. • c) In addition to the cell plate used for compound analysis, another 96-well plate was prepared as a T0 plate, and 3-6 blank wells and 3-6 cell wells were added. The next day, CTG was used to test the cell viability as the T0 viability value of the cells. • d) The cell plate was incubated at 37 °C in a 5% CO2 incubator overnight. • e) The next day, each concentration of a compound subjected to a gradient dilution was added, and the cell plate was incubated at 37 °C in a 5% CO2 incubator for 72 h. The wells with no compound and only 0.5% DMSO were used as positive controls for cell growth. • f) CTG reagent (CellTiter-Glo kit) was added according to the manufacturer's instructions to test the cell viability value. • g) The plate was read using Biotek cytation3.0 microplate reader and the data were exported. • h) IC50 was calculated using GraphPad Prism 7.0 software.
(§3) The IC50 (half-maximal inhibitory concentration) of the compound was obtained using the following nonlinear fitting formula: Y = Bottom + (Top−Bottom)/(1+10^(∧)((LogIC50−X)*HillSlope)) [formula] • X: Log value of the compound concentration • Y: Inhibition rate (% inhibition) • Top: Maximum response • Bottom: Baseline response • HillSlope: Slope of the curve
(§4) The formula for calculating cell inhibition rate (inhibition rate %) was: [formula]

[2] = biological target: T1, Ba/F3 BCR-ABL1 WT (Homo sapiens, UniProt P00519+P11274); test: Cell growth inhibitory activity assay (CellTiter-Glo), Ba/F3 BCR-ABL1 WT cells; settings: 72 h, CTG cell viability
T1 construct: BCR (N-terminal fusion partner of the oncoprotein); expressed in transfected cells; host or cells: Ba/F3 (lentiviral transduction, monoclonal line)
Description: as §1, §2, §3, §4

[3] = biological target: T2, Ba/F3 BCR-ABL1 T315I (Homo sapiens, UniProt P00519+P11274, T315I); test: Cell growth inhibitory activity assay (CellTiter-Glo), Ba/F3 BCR-ABL1 T315I cells; settings: 72 h, CTG cell viability
T2 construct: BCR (N-terminal fusion partner of the oncoprotein); expressed in transfected cells; host or cells: Ba/F3 (lentiviral transduction, monoclonal line)
Description: as §1, §2, §3, §4

[4] = tested on: Ba/F3 parental cells; test: Cell growth inhibitory activity assay (CellTiter-Glo), Ba/F3 parental cells; settings: Mus musculus, BaF3, 72 h, CTG cell viability, read-out: IC50 Ba/F3 BCR-ABL1 Parental
Description: as §1, §2, §3, §4

Row | SMILES | IC50 [1] [nM] | IC50 [2] [nM] | IC50 [3] [nM] | IC50 [4] [nM]
1 | Cn1ccc2cnc(-n3cc4c(n3)-c3cc(-c5cc(C(=O)Nc6ccc(OC(F)(F)Cl)cc6)cnc5N5CC[C@@H](F)C5)cnc3C4)nc21 [T-38, (R)-N-(4-(chlorodifluoromethoxy)phenyl)-6-(3-fluoropyrrolidin-1-yl)-5-(2-(7-methyl-7H-pyrrolo[2,3-d]pyrimidin-2-yl)-2,4-dihydropyrazolo[3',4':3,4]cyclopenta[1,2-b]pyridin-7-yl)nicotinamide] | ≤ 5 | ≤ 5 | ≤ 5 | > 1000
2 | C[C@@H]1CN(C)Cc2nc3cc(C(=O)Nc4ccc(OC(F)(F)Cl)cc4)cc(-c4cnc5c(c4)-c4n[nH]cc4C5)c3n21 [T-40, (R)-N-(4-(chlorodifluoromethoxy)phenyl)-6-(2,4-dihydropyrazolo[3',4':3,4]cyclopenta[1,2-b]pyridin-7-yl)-2,4-dimethyl-1,2,3,4-tetrahydrobenzo[4,5]imidazo[1,2-a]pyrazine-8-carboxamide] | ≤ 5 | ≤ 5 | > 1000 | > 1000
3 | O=C(Nc1ccc(OC(F)(F)Cl)cc1)c1cnc(N2CC[C@@H](F)C2)c(-c2cnc3c(c2)-c2nn(-c4ncc5ccsc5n4)cc2C3)c1 [T-44, (R)-N-(4-(chlorodifluoromethoxy)phenyl)-6-(3-fluoropyrrolidin-1-yl)-5-(2-(thieno[2,3-d]pyrimidin-2-yl)-2,4-dihydropyrazolo[3',4':3,4]cyclopenta[1,2-b]pyridin-7-yl)nicotinamide] | ≤ 5 | ≤ 5 | ≤ 5 | > 1000
4 | CCC(=O)n1cc2c(n1)-c1cc(-c3cc(C(=O)Nc4ccc(OC(F)(F)Cl)cc4)cc4nc5n(c34)[C@H](C)COC5)cnc1C2 [T-45, (R)-N-(4-(chlorodifluoromethoxy)phenyl)-4-methyl-6-(2-propionyl-2,4-dihydropyrazolo[3',4':3,4]cyclopenta[1,2-b]pyridin-7-yl)-3,4-dihydro-1H-benzo[4,5]imidazo[2,1-c][1,4]oxazine-8-carboxamide] | ≤ 5 | ≤ 5 | ≤ 5 | > 1000
5 | CC(C)C(=O)n1cc2c(n1)-c1cc(-c3cc(C(=O)Nc4ccc(OC(F)(F)Cl)cc4)cc4nc5n(c34)[C@H](C)COC5)cnc1C2 [T-46, (R)-N-(4-(chlorodifluoromethoxy)phenyl)-6-(2-isobutyryl-2,4-dihydropyrazolo[3',4':3,4]cyclopenta[1,2-b]pyridin-7-yl)-4-methyl-3,4-dihydro-1H-benzo[4,5]imidazo[2,1-c][1,4]oxazine-8-carboxamide] | ≤ 5 | ≤ 5 | ≤ 5 | > 1000
6 | C[C@@H]1COCc2nc3cc(C(=O)Nc4ccc(OC(F)(F)Cl)cc4)cc(-c4cnc5c(c4)-c4nn(C(=O)C6CC6)cc4C5)c3n21 [T-47, (R)-N-(4-(chlorodifluoromethoxy)phenyl)-6-(2-(cyclopropylcarbonyl)-2,4-dihydropyrazolo[3',4':3,4]cyclopenta[1,2-b]pyridin-7-yl)-4-methyl-3,4-dihydro-1H-benzo[4,5]imidazo[2,1-c][1,4]oxazine-8-carboxamide] | ≤ 5 | ≤ 5 | ≤ 5 | > 1000
7 | O=C(Nc1ccc(OC(F)(F)Cl)cc1)c1cnc(N2CC[C@@H](F)C2)c(-c2cnc3c(c2)-c2nn(-c4ncc(N5CC[C@@H](F)C5)cn4)cc2C3)c1 [T-50, N-(4-(chlorodifluoromethoxy)phenyl)-6-((R)-3-fluoropyrrolidin-1-yl)-5-(2-(5-((R)-3-fluoropyrrolidin-1-yl)pyrimidin-2-yl)-2,4-dihydropyrazolo[3',4':3,4]cyclopenta[1,2-b]pyridin-7-yl)nicotinamide] | ≤ 5 | ≤ 5 | 5 to 50 | > 1000
